Experimental data taken from patent US20220276186A1, “OPTIMIZED ANALYTE DERIVATIZATION FOR SYNERGISTIC APPLICATION WITH CRYSTAL SPONGE METHOD” (MERCK PATENT GMBH, priority 2019, published 2022).

Assay: solubility of the analyte in chloroform (step i of Procedure 1, crystalline sponge method)
Assay type: physicochemical
Procedure: Procedure 1—absorption of an organic molecule into a single porous crystal. Specifically, procedure 1 describes absorption of an organic molecule into a crystalline sponge comprising [(ZnCl2)3(tpt)2.(cyclohexane)x] (tpt=1,3,5-tris(4-pyridyl)triazine. The organic molecule is first dissolved in trichloro methane (chloroform), i.e., the sample comprises the organic molecule in trichloro methane. The procedure comprises the steps: • i—1 mg of organic molecule is dissolved in 1 ml of chloroform at room temperature. (Proportionally lower quantities can be used, depending on the available amount of analyte.) • ii—A single crystal of [(ZnCl2)3(tpt)2.(cyclohexane)x] (tpt=1,3,5-tris(4-pyridyl)triazine) crystal sponge of about 100 μm diameter, which has been visually inspected under a microscope and found to be without twinning or visible cracks, is placed in a septum screw-top glass vial with conically pointed bottom, submerged in 50 μl of cyclohexane. • iii—4.5 μl of the solution obtained in step (i) (containing 4.5 μg of analyte) is added to the crystalline sponge in cyclohexane as described in step (ii). • iv—The screw-top is closed, and the septum is pierced with a medical-type syringe needle, which may be left in that position to enable slow solvent evaporation. This assembly is incubated at 50° C. for 24 or more hours. […]

amount of analyte that could be dissolved in 1 ml chloroform (20° C.) | solution of analyte in chloroform that could be prepared without difficulty (Procedure 1 step i (room temperature)) [mg in 1 ml] | Compound
about 0.005 mg in 1 ml |  | O=c1c(-c2ccc(O)cc2)coc2cc(O)ccc12 [4′,7-dihydroxy isoflavone]
 | ≥ 1 | COc1ccc(-c2coc3cc(OC)ccc3c2=O)cc1 [4′,7-dimethoxy isoflavone]
